In patent US20240398947A1, “CAR T-CELL ADJUVANT THERAPIES” (CytoAgents, Inc., priority 2020, published 2024):

What was measured:
influenza (H1N1) = assay type: in vivo, mice
CRS = assay: Mouse model of CAR T-cell therapy induced CRS (Raji-luc tumor); conditions: IP, BID for 7 days
normal human PBMC [1] = assay: Cytokine release assay in stimulated normal human PBMC (Luminex multiplex); assay type: cell-based; conditions: for significant reduction of IL-1α / significant reduction of IL-1β: 5 donors
influenza (H5N1) = conditions: in vivo influenza (H5N1), Gemmus Pharma studies; cited from earlier work
normal human PBMC [2] = assay: AlamarBlue cell viability of treated PBMC; assay type: cell-based; conditions: PBMC of Donors 1-5, 48 hours post stimulation, GP1681 750 μM
Description: Following pre-treatment, cells were stimulated with either LPS or Poly (I:C). Twenty-four to forty-eight hours post-stimulation supernatants were collected and tested both for viability (48 hours) as well as concentrations of 29 different cytokines (24 hours.). Viability assessments confirmed the lack of GP1681-associated cell cytotoxicity. Statistical comparisons in individual donor results were conducted between all test groups within each donor group (between individual stimulant-treatment pairs) to determine efficacy of stimulation as well as any potential GP1681 effects on cytokine production. Additionally, statistical analysis was performed on pooled donor data for each cytokine stimulant-treatment pair to comprehensively determine cytokine suppression effects of GP1681 for each cytokine.
After resting the cells, 100 μl of GP1681 was added to appropriate wells at a final dosing concentration of 750 μM. […] For cell stimulation, 20 μL of the 1.0 ng/ml LPS solution or the 250 μg/ml Poly (I:C) solution were added to appropriate wells according to the group designation. Twenty-four hours later 100 uL of supernatant were collected from all wells and stored for cytokine analysis. Approximately four hours before final harvest, AlamarBlue dye was added to all wells. At forty-eight hours post stimulation all samples were collected, and supernatants tested for cell viability. […]

[3] = in vivo influenza (H1N1), current CytoAgents studies
[4] = LPS-stimulated PBMC, 24 h supernatant, DEX 1 μM, GP1681 750 μM
[5] = Poly(I:C)-stimulated PBMC, 24 h supernatant, DEX 1 μM, GP1681 750 μM

SMILES: CC#CC[C@H](C)[C@H](O)/C=C/[C@@H]1[C@H]2c3cccc(CCCC(=O)[O-])c3O[C@H]2C[C@H]1O.[Na+] [GP1681, esuberaprost sodium salt]
- IL-2 reduced by treatment (influenza (H1N1); [3]): reduced
- IL-6 reduced by treatment (influenza (H1N1); [3]): reduced
- IL-10 reduced by treatment (influenza (H1N1); [3]): reduced
- IL-8 production suppressed by treatment (influenza (H1N1); mouse, in vivo): significantly suppressed
- repression of IFNα concentrations (influenza (H1N1); mouse, in vivo): no significant repression
- cytokine production, comparison with dexamethasone (CRS): superior to dexamethasone
- survival benefits over dexamethasone (CRS): greater survival benefits
- number of cytokines reduced of the 29 cytokines analyzed (normal human PBMC [1]; LPS or Poly(I:C) stimulated PBMC, pooled and individual donor results): 21
- significant reduction of IL-1α (normal human PBMC [1]; [4]): YES
- significant reduction of IL-1β (normal human PBMC [1]; [4]): YES
- significant reduction of CCL2 (MCP-1) (normal human PBMC [1]; [4]): YES
- significant reduction of CCL3 (MIP1 α) (normal human PBMC [1]; [4]): YES
- significant reduction of CCL5 (RANTES) (normal human PBMC [1]; [4]): YES
- significant reduction of CXCL9 (MIG) (normal human PBMC [1]; [4]): YES
- significant reduction of CXCL10 (IP-10) (normal human PBMC [1]; [4]): YES
- significant reduction of FGF (normal human PBMC [1]; [4]): YES
- significant reduction of GM-CSF (normal human PBMC [1]; [4]): YES
- significant reduction of IFN-α2 (normal human PBMC [1]; [4]): YES
- significant reduction of IFN-γ (normal human PBMC [1]; [4]): YES
- significant reduction of IL-4 (normal human PBMC [1]; [4]): YES
- significant reduction of IL-5 (normal human PBMC [1]; [4]): YES
- significant reduction of IL-9 (normal human PBMC [1]; [4]): YES
- significant reduction of IL-12 (normal human PBMC [1]; [4]): YES
- significant reduction of IL-13 (normal human PBMC [1]; [4]): YES
- significant reduction of IL-15 (normal human PBMC [1]; [4]): YES
- significant reduction of IL-17 (normal human PBMC [1]; [4]): YES
- significant reduction of IL-18 (normal human PBMC [1]; [4]): YES
- significant reduction of PDGF (normal human PBMC [1]; [4]): YES
- significant reduction of TNF α (normal human PBMC [1]; [4]): YES
- significant reduction of IL-1α (normal human PBMC [1]; [5]): YES
- significant reduction of IL-1β (normal human PBMC [1]; [5]): YES
- significant reduction of CCL2 (MCP-1) (normal human PBMC [1]; [5]): YES
- significant reduction of CCL5 (RANTES) (normal human PBMC [1]; [5]): YES
- significant reduction of CXCL9 (MIG) (normal human PBMC [1]; [5]): YES
- significant reduction of CXCL10 (IP-10) (normal human PBMC [1]; [5]): YES
- significant reduction of IFN-α2 (normal human PBMC [1]; [5]): YES
- significant reduction of IFN-γ (normal human PBMC [1]; [5]): YES
- significant reduction of IL-4 (normal human PBMC [1]; [5]): YES
- significant reduction of IL-5 (normal human PBMC [1]; [5]): YES
- significant reduction of IL-12 (normal human PBMC [1]; [5]): YES
- significant reduction of IL-13 (normal human PBMC [1]; [5]): YES
- significant reduction of IL-15 (normal human PBMC [1]; [5]): YES
- significant reduction of IL-18 (normal human PBMC [1]; [5]): YES
- significant reduction of PDGF (normal human PBMC [1]; [5]): YES
- significant reduction of TNF α (normal human PBMC [1]; [5]): YES
- number of different cytokines whose production is down regulated (normal human PBMC [1]; data from Gemmus Pharma, Inc studies and the present work together): approximately 25
- nominal reduction in the ex vivo production of IFNα (normal human PBMC [1]; stimulated PBMC, statistically significant): less than 2 fold
- IL-2 reduced by treatment (influenza (H5N1)): reduced
- IL-6 reduced by treatment (influenza (H5N1)): reduced
- IL-8 reduced by treatment (influenza (H5N1)): reduced
- IL-10 reduced by treatment (influenza (H5N1)): reduced
- cytotoxicity (Alamar blue viability assessment) (normal human PBMC [2]): no cytotoxicity
